This experiment can be described thus: Inhibition of moloney murine leukemia virus reverse transcriptase.

EC50 data for one compound are collected here from ChEMBL document CHEMBL1158024, “Terpenoids of Syzygium formosanum” (J Nat Prod, 1999).

One may read the EC50 as the concentration giving half of the maximal effect.

For the compound `C=C(C)[C@@H]1CC[C@]2(C(=O)O)CC[C@]3(C)[C@H](CC[C@@H]4[C@@]5(C)CC[C@H](O)C(C)(C)[C@@H]5CC[C@]43C)[C@@H]12` [BETULINIC ACID], the concentration for a half-maximal effect (EC50) was found to be 1.4 µM.
